Laboratory results reported in US20210300940A1 (Merck Patent GmbH, priority 2018, published 2021).
Counter-ions that a name gives are not always drawn.

Key:
[1] = target: T1, TLR7 (Homo sapiens, UniProt Q9NYK1); assay: HEK/293 TLR7 Cell Assay; assay type: cell-based; conditions: TLR7/NFKb HEK cells, R848 agonist 10 uM final concentration, Steady-Glo readout; read-out: TLR7 potency
T1 construct: expressed in transfected cells; host or cells: HEK/293 cells carrying TLR7 and an NF-kB luciferase reporter
T1 sequence (Q9NYK1 27-1049): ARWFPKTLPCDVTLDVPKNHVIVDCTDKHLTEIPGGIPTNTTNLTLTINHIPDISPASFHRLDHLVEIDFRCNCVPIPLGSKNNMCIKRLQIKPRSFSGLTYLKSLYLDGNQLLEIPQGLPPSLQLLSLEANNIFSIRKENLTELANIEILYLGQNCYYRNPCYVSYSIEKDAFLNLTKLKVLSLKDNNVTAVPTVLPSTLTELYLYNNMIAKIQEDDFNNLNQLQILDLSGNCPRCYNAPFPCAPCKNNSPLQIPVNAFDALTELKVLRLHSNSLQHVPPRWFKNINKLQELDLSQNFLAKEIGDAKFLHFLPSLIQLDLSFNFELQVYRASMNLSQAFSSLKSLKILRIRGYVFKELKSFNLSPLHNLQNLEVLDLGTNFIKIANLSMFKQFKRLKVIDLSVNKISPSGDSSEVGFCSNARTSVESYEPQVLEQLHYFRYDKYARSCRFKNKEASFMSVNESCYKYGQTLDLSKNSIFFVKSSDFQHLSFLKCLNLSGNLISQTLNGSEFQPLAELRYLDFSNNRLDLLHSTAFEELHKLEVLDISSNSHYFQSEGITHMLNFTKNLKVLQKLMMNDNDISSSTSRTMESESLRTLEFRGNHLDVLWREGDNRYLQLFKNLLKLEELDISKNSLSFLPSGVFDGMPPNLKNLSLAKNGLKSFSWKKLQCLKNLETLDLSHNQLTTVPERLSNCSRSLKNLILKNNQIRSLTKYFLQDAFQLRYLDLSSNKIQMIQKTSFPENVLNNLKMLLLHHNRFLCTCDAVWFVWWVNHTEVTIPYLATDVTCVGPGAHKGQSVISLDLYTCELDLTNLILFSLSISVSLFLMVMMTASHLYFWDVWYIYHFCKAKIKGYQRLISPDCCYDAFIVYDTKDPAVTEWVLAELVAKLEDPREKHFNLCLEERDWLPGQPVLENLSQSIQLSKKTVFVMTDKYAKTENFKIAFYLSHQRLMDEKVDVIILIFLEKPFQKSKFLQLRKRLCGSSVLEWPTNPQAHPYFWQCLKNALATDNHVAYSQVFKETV
Method in brief: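 Compounds added to HEK cells expressing TLR7 with an NFκB reporter 30 min ahead of 10 uM R848 challenge; luciferase signal (Steady-Glo) measured after 5 h, cells having been seeded 24 h earlier at 5000 per well.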

[2] = target: T2, TLR8 (Homo sapiens, UniProt Q9NR97); assay: HEK/293 TLR8 Cell Assay; assay type: cell-based; conditions: HEK cells, R848 agonist 30 uM final concentration, Steady-Glo readout; read-out: TLR8 potency
T2 construct: expressed in transfected cells; host or cells: HEK/293 reporter cells (NF-kB luciferase)
T2 sequence (Q9NR97 27-1041): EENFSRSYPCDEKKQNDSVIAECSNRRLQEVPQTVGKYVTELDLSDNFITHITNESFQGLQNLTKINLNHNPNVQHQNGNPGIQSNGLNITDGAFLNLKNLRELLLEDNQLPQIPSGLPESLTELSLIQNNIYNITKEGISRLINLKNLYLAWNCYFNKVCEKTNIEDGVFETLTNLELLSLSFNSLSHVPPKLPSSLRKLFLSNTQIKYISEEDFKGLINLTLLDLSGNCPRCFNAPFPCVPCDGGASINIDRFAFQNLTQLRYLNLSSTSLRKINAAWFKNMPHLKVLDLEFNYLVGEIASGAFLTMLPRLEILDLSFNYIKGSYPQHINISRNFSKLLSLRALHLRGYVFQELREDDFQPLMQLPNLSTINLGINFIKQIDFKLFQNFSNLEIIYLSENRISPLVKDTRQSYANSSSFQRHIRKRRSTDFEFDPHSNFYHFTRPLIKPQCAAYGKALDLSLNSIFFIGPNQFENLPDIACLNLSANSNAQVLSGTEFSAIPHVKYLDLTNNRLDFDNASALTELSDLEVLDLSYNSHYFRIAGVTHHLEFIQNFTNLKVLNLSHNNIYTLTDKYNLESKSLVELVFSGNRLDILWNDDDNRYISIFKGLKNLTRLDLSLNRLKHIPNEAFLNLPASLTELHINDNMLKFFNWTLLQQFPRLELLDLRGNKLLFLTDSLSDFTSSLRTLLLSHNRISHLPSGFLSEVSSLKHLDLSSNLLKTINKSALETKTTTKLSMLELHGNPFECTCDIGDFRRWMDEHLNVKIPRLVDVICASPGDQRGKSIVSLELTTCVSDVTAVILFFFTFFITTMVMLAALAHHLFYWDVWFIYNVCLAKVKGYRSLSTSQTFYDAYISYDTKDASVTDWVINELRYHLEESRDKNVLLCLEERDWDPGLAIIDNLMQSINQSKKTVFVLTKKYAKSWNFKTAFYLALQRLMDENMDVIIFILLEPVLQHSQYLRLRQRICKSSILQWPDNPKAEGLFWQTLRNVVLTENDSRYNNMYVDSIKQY

SMILES | IC50 [1] | IC50 [2]
C[C@@H]1CN(c2ccc(C#N)c3nccnc23)C[C@H](C(=O)NCC2CCCN2C)O1 (stereo partly drawn) [Example 245, (2R,6R)-4-(8-Cyano-quinoxalin-5-yl)-6-methyl-morpholine-2-carboxylic acid (1-methyl-pyrrolidin-2-ylmethyl)-amide] | < 75 nM | < 75 nM
C[C@H]1C[C@@H](NCCNS(C)(=O)=O)CN(c2ccc(C(F)(F)F)c3nccnc23)C1 [Example 23, N-{2-[(3R,5S)-5-Methyl-1-(8-trifluoromethyl-quinoxalin-5-yl)-piperidin-3-ylamino]-ethyl}-methanesulfonamide] | < 75 nM | < 75 nM
C[C@H](O)CNC(=O)[C@H]1CN(c2ccc(C#N)c3nccnc23)C[C@@H](C(F)(F)F)O1 (single isomer, unassigned) [Example 286] | > 150 nM | > 150 nM
Cc1ccc(N2C[C@@H](C)C[C@@H](NC(=O)C(N)C3CC3)C2)c2cccnc12 (stereo partly drawn) [Example 133, 2-Amino-2-cyclopropyl-N-[(3R,5S)-5-methyl-1-(8-methyl-quinolin-5-yl)-piperidin-3-yl]-acetamide] | < 75 nM | < 75 nM
C[C@H]1C[C@@H](NC(=O)C[C@H](O)CN(C)C)CN(c2ccc(C#N)c3nccnc23)C1 [Example 210, (3S)—N-[(3R,5S)-1-(8-cyanoquinoxalin-5-yl)-5-methylpiperidin-3-yl]-4-(dimethylamino)-3-hydroxybutanamide] | < 75 nM | < 75 nM
CC(=O)NCCN[C@@H]1C[C@H](C)CN(c2ccc(C(F)(F)F)c3ncccc23)C1 [Example 37, N-{2-[(3R,5S)-5-Methyl-1-(8-trifluoromethyl-quinolin-5-yl)-piperidin-3-ylamino]-ethyl}-acetamide formic acid] | < 75 nM | < 75 nM
Cc1ccc(N2C[C@@H](C)C[C@@H](NC(=O)CC3(O)CCN(C)CC3)C2)c2cccnc12 [Example 85, 2-(4-hydroxy-1-methylpiperidin-4-yl)-N-[(3R,5S)-5-methyl-1-(8-methylquinolin-5-yl)piperidin-3-yl]acetamide hydrochloride] | < 75 nM | < 75 nM
C[C@@H]1CN(c2ccc(C(F)(F)F)c3ncccc23)C[C@H](CN2CCC(C(C)(C)O)C2)O1 (stereo partly drawn) [Example 331, 2-{1-[(2S,6R)-6-Methyl-4-(8-trifluoromethyl-quinolin-5-yl)-morpholin-2-ylmethyl]-pyrrolidin-3-yl}-propan-2-ol] | < 75 nM | 75 to 150 nM
C[C@@H]1CN(c2ccc(C#N)c3nccnc23)C[C@H](C(=O)NC[C@@H]2COCCN2)O1 (single isomer, unassigned) [Example 297] | < 75 nM | < 75 nM
C[C@H]1C[C@@H](NC(=O)[C@H]2CCCN2)CN(c2ccc(C(F)(F)F)c3ncccc23)C1 [Example 177, (R)-Pyrrolidine-2-carboxylic acid [(3R,5S)-5-methyl-1-(8-trifluoromethyl-quinolin-5-yl)-piperidin-3-yl]-amide] | 75 to 150 nM | < 75 nM
CC(=O)NCCNC[C@H]1CN(c2cnc(C#N)c3ncccc23)C[C@@H](C)O1 [Example 380, N-(2-{[(2S,6R)-4-(8-Cyano-[1,7]naphthyridin-5-yl)-6-methyl-morpholin-2-ylmethyl]-amino}-ethyl)-acetamide] | > 150 nM | > 150 nM
C[C@@H]1CN(c2ccc(C#N)c3nccnc23)C[C@H](C(=O)NCC2(F)CCNCC2)O1 [Example 290, (2R,6R)-4-(8-Cyano-quinoxalin-5-yl)-6-methyl-morpholine-2-carboxylic acid (4-fluoro-piperidin-4-ylmethyl)-amide] | < 75 nM | < 75 nM
C[C@@H]1CN(c2cnc(C#N)c3ncccc23)C[C@H](C(=O)NCC2CN(C)CCO2)O1 (stereo partly drawn) [Example 271, (2R,6R)-4-(8-Cyano-[1,7]naphthyridin-5-yl)-6-methyl-morpholine-2-carboxylic acid (4-methyl-morpholin-2-ylmethyl)-amide] | < 75 nM | < 75 nM
N#Cc1ccc(N2C[C@@H](C(=O)N3C[C@@H](N)C4(CC4)C3)O[C@@H](C(F)(F)F)C2)c2nccnc12 (single isomer, unassigned) [Example 312] | < 75 nM | > 150 nM
C[C@H]1C[C@@H](NC(=O)[C@@H](C)N2CCC(O)CC2)CN(c2ccc(C(F)(F)F)c3ncccc23)C1 (single isomer, unassigned) [Example 105] | > 150 nM | < 75 nM
Cc1cc(CC(=O)N[C@@H]2C[C@H](C)CN(c3ccc(C#N)c4nccnc34)C2)on1 [Example 74, N-[(3R,5S)-1-(8-cyanoquinoxalin-5-yl)-5-methylpiperidin-3-yl]-2-(3-methyl-1,2-oxazol-5-yl)acetamide] | < 75 nM | < 75 nM
C[C@@H]1CN(c2ccc(C#N)c3nccnc23)C[C@H](C(=O)NC[C@@H]2COCCN2C)O1 (single isomer, unassigned) [Example 264] | < 75 nM | < 75 nM
CCN1CCN(C[C@H]2CN(c3cnc(C#N)c4ncccc34)C[C@@H](C)O2)CC1 [Example 371, 5-[(2S,6R)-2-(4-Ethyl-piperazin-1-ylmethyl)-6-methyl-morpholin-4-yl]-naphthyridine-8-carbonitrile] | > 150 nM | < 75 nM
CCOc1ncc(N2C[C@H](N)C[C@H](C(F)(F)F)C2)c2cccnc12 [Example 10, (3R,5S)-1-(8-Ethoxy-[1,7]naphthyridin-5-yl)-5-trifluoromethyl-piperidin-3-ylamine] | > 150 nM | > 150 nM
C[C@H]1C[C@@H](NC(=O)C2CCN(C(=O)[C@@H](N)[C@@H](C)O)CC2)CN(c2ccc(C(F)(F)F)c3ncccc23)C1 [Example 182, 1-((2S,3R)-2-Amino-3-hydroxy-butyryl)-piperidine-4-carboxylic acid [(3R,5S)-5-methyl-1-(8-trifluoromethyl-quinolin-5-yl)-piperidin-3-yl]-amide] | < 75 nM | < 75 nM
C[C@@H]1CN(c2cnc(C#N)c3ncccc23)C[C@H](CN2CCNCC2)O1 [Example 366, 5-((2R,6S)-2-Methyl-6-piperazin-1-ylmethyl-morpholin-4-yl)-[1,7]naphthyridine-8-carbonitrile] | < 75 nM | < 75 nM
C[C@H]1C[C@@H](NC(=O)C2CCNCC2)CN(c2ccc(C(F)(F)F)c3ncccc23)C1 [Example 179, Piperidine-4-carboxylic acid [(3R,5S)-5-methyl-1-(8-trifluoromethyl-quinolin-5-yl)-piperidin-3-yl]-amide] | < 75 nM | < 75 nM
